{"source": "patent EP4813990A1", "about": "“COMPOUND FOR TREATING CANCER” (INNOLAKE BIOPHARMA (HANGZHOU) CO., LTD., priority 2023, dated 2025)", "key": {"[1]": {"test_system": "MC38 mouse colon cancer xenograft", "test": "MC38 mouse colon cancer xenograft model, single agent and combination with anti-CTLA-4 antibody", "format": "in vivo, C57BL/6 mice", "settings": "for Tumor Volume (mm^3) (Day 9): Day 9 after inoculation; for Tumor Volume (mm^3) (Day 9) / Tumor Volume (mm^3) / Tumor Volume (mm^3) (Day 15) / Tumor Weight / Tumor Volume (mm^3) (Day 12): Mean ± SEM; for Tumor Volume (mm^3) (Day 9) / Tumor Volume (mm^3) / Tumor Volume (mm^3) (Day 15) / Number of Animals with Tumor Volume > 250mm^3 / T/C (%) (Day 21) / Tumor Volume (mm^3) (Day 12) / TGI (%) (Day 21): n=8; for Tumor Volume (mm^3) (Day 15): Day 15 after inoculation; for Number of Animals with Tumor Volume > 250mm^3 / T/C (%) (Day 21) / TGI (%) (Day 21): Day 21; for Tumor Weight: end of experiment (D23); for Tumor Volume (mm^3) (Day 12): head prints Day 12; for TGI (%) (Day 21): tumor volume based; for TGITW (%): tumor weight based", "protocol": "A total of 6 groups were set up in the experiment: vehicle control group, ILB-2109 low-dose and high-dose single-agent groups, Anti-CTLA-4 antibody single-agent group, and two dose groups of ILB-2109 and Anti-CTLA-4 in combination. Table 1. Experimental Administration Dosage and Grouping\nAnti-CTLA-4 antibody was aseptically diluted to 0.5 mg/mL with DPBS and prepared immediately before administration.\nILB-2109 was formulated to 10 mg/mL with vehicle, 1% tween80 + 9% PEG400 + 90% ddwater. Specific preparation method: Prepare Vehicle 1 (10 mL Tween80, 90 mL PEG400, 900 mL ddwater), weigh 1120 mg of ILB-2109 and add into 112 mL of Vehicle 1, grind to basically uniform, then ultrasonicate for about 2-3 minutes to obtain a homogeneous suspension. An appropriate amount of the solution was diluted to 5 mg/mL with Vehicle 1 (1% Tween80 + 9% PEG400 + 90% ddwater) at a ratio of 1:1. The prepared solution was aliquoted into 5 mL EP tubes with 4 mL per tube and stored at 4°C. Prepared once a week.\n48 female C57BL/6 mice were inoculated subaxillarily with 0.1 mL DPBS containing 2×10^5 MC38 cells. On the day of inoculation, mice were randomly divided into vehicle control group, ILB-2109 low-dose group and ILB-2109 high-dose group according to body weight, with 16 animals in each group. The day of inoculation was defined as D1. On D9 after inoculation, the average tumor volume of the vehicle control group reached about 64 mm^3. According to animal tumor volume and body weight, the original vehicle control group was divided into vehicle control group and Anti-CTLA-4 antibody single-agent group; the original ILB-2109 low-dose group was divided into ILB-2109 low-dose single-agent group and the combination group of low-dose ILB-2109 and anti-CTLA-4 antibody; the original ILB-2109 high-dose group was divided into ILB-2109 high-dose single-agent group and the combination group of high-dose ILB-2109 and Anti-CTLA-4 antibody. Administration was carried out for each group on the day of regrouping according to the set dosage.\nTumor volume was measured and body weight was weighed 3 times a week.\nAll animals were euthanized on D23 after inoculation, and tumor samples were collected and weighed.\nTumor volume was measured 3 times a week, and tumor growth inhibition TGITV (%) was calculated. The calculation formula of Tumor Volume (TV) is: TV = 1/2 × a × b^2 [formula] where a and b represent the major diameter and minor diameter of the tumor mass respectively. [formula]\nTumor weight of animals was measured during sample collection. The tumor growth inhibition was calculated according to the following formula: Tumor Growth Inhibition based on Tumor Weight TGITW(%) = (TWc−TWt)/TWc × 100% [formula] where TWt is the mean tumor weight of the treatment group, and TWc is the mean tumor weight of the vehicle control group.\nAll data were expressed as Mean ± SEM.\nIn this experiment, data on D21 after inoculation were used for statistical analysis by PRISM software. T test was used for comparison between two groups, and one-way ANOVA was used for comparison among three or more groups."}, "Plasma protein binding [2]": {"test": "Plasma protein binding", "format": "in vitro ADME", "settings": "one range given for CD-1 mice, Sprague-Dawley rats, Beagle dogs and cynomolgus monkeys"}, "[3]": {"test_system": "histidine-deficient Salmonella typhimurium strains (TA97a, TA98, TA100, TA102 and TA1535)", "test": "AMES reverse mutation test", "format": "cell-based", "settings": "128 ~ 5000 µg/plate, with or without S9 metabolic activation system", "excerpt": "This test detected the ability of ILB-2109 to induce reverse mutation of histidine-deficient Salmonella typhimurium strains (TA97a, TA98, TA100, TA102 and TA1535) with and without exogenous metabolic activation system. […] Therefore, under the research conditions, the Ames test result was negative."}, "CYP2D6": {"biological_target": "T1, CYP2D6 (Homo sapiens, UniProt P10635)", "T1 construct": "In vitro human liver microsome tests; from tissue; host or cells: human liver microsomes", "T1 sequence (P10635 whole entry)": "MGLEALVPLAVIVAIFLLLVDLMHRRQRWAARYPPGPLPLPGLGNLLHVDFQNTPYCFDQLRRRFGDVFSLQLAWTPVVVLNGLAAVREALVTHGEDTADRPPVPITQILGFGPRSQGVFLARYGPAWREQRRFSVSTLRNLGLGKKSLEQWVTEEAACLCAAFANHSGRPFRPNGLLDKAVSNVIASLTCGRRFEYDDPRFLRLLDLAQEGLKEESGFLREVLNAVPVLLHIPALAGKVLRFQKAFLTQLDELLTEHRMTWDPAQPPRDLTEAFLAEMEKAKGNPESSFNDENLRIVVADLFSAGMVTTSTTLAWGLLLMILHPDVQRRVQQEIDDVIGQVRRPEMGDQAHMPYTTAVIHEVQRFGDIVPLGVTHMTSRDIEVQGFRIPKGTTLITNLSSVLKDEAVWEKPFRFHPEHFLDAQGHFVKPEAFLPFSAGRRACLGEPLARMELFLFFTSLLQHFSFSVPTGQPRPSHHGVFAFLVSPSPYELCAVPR", "test": "Human liver microsome CYP inhibition (direct and time-dependent)", "format": "in vitro ADME", "excerpt": "The non-dilution method was used to determine the time-dependent inhibitory effect of ILB-2109 on human liver microsomal cytochrome P450 isoenzymes (CYP1A2, CYP2B6, CYP2C8, CYP2C9, CYP2C19, CYP2D6 and CYP3A4). Generally, an IC50 shift multiple ≥1.5 was taken as the judgment standard for time-dependent inhibitors."}, "Plasma protein binding [4]": {"test": "Plasma protein binding", "format": "in vitro ADME", "settings": "one range given for CD-1 mice, Sprague-Dawley rats, Beagle dogs and cynomolgus monkeys", "remark": "listed apart in the source"}, "A2aR": {"biological_target": "A2aR (Homo sapiens, UniProt P29274)", "sequence (P29274 whole entry)": "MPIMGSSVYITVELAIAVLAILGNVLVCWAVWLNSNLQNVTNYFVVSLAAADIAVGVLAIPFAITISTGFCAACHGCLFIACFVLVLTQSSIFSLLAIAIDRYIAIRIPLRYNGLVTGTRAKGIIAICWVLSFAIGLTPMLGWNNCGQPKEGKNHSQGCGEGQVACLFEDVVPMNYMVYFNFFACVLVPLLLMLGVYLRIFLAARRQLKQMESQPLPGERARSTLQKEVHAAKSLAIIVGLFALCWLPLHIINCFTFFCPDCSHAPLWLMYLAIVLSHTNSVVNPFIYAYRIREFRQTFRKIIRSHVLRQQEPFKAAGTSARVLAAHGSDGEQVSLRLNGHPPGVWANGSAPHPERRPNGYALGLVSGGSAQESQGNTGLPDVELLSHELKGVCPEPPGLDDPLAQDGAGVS", "test": "Antagonism of A2aR activity at the cellular level", "format": "cell-based", "excerpt": "Meanwhile, ILB-2109 had high selectivity for A2aR (compared with A1, A2b and A3 receptors, the selectivity was 18.9 times, 40.7 times and 3424.7 times respectively)."}, "[5]": {"test": "Single-dose toxicity study in rats", "settings": "Sprague-Dawley, rat, in vivo, po; SD rats, single intragastric administration, observed for 14 days; read-out: maximum tolerated dose (MTD)", "protocol": "In accordance with the relevant requirements of the Good Laboratory Practice for Non-clinical Drug Studies issued by the National Medical Products Administration of the People's Republic of China, and following the test protocol and revisions, the safety pharmacology test, single-dose toxicity, genetic toxicity, etc. of ILB-2109 were explored.\nSD rats were given single intragastric administration of ILB-2109 and observed for 14 days. The single doses were 0 (vehicle), 500, 1000 and 2000 mg/kg ILB-2109. […] No abnormalities were found in body weight, food consumption, clinical examination and gross anatomy. Under the test conditions, the maximum tolerated dose (MTD) of ILB-2109 in rats was 2000 mg/kg."}, "[6]": {"test_system": "CYP3A, CYP2B6, CYP2C8, CYP2C9, CYP1A2, CYP2C19 and CYP2D6", "test": "Metabolic enzyme phenotyping for production of metabolite M4", "format": "in vitro ADME"}, "[7]": {"settings": "ILB-2109 100 mg/kg gavage twice a day"}, "[8]": {"settings": "ILB-2109 50 mg/kg gavage twice a day"}}, "note": "“And” between values parts separate entries of the source, which are not always exact repeats. Identical values can stand only once.", "data": [{"smiles": "Cc1cc(-c2c(-c3ccccc3)nc(N)n3nc(CO)nc23)cc(C(F)(F)F)n1", "note": "[ILB-2109]", "values": [{"measurement": "Tumor Volume (mm^3) (Day 9)", "setting": "[1]; ILB-2109 50 mg/kg gavage twice a day, 50 mg/kg", "result": "63±6 mm^3 and 63.65±6 mm^3"}, {"measurement": "Tumor Volume (mm^3) (Day 9)", "setting": "[1]; [7]", "result": "58±4", "unit": "mm^3"}, {"measurement": "Tumor Volume (mm^3)", "setting": "[1]; Day 11 after inoculation, ILB-2109 50 mg/kg gavage twice a day", "result": "115±13", "unit": "mm^3"}, {"measurement": "Tumor Volume (mm^3)", "setting": "[1]; Day 11 after inoculation, ILB-2109 100 mg/kg gavage twice a day", "result": "78±8", "unit": "mm^3"}, {"measurement": "Tumor Volume (mm^3)", "setting": "[1]; Day 13 after inoculation, ILB-2109 50 mg/kg gavage twice a day", "result": "143±20", "unit": "mm^3"}, {"measurement": "Tumor Volume (mm^3)", "setting": "[1]; Day 13 after inoculation, ILB-2109 100 mg/kg gavage twice a day", "result": "105±11", "unit": "mm^3"}, {"measurement": "Tumor Volume (mm^3) (Day 15)", "setting": "[1]; [8]", "result": "225±34", "unit": "mm^3"}, {"measurement": "Tumor Volume (mm^3) (Day 15)", "setting": "[1]; ILB-2109 100 mg/kg gavage twice a day, 100 mg/kg", "result": "257±18 mm^3 and 157±18 mm^3"}, {"measurement": "Tumor Volume (mm^3)", "setting": "[1]; Day 17 after inoculation, ILB-2109 50 mg/kg gavage twice a day", "result": "269±41", "unit": "mm^3"}, {"measurement": "Tumor Volume (mm^3)", "setting": "[1]; Day 17 after inoculation, ILB-2109 100 mg/kg gavage twice a day", "result": "207±25", "unit": "mm^3"}, {"measurement": "Number of Animals with Tumor Volume > 250mm^3", "setting": "[1]; [8]", "result": "8/8"}, {"measurement": "T/C (%) (Day 21)", "setting": "[1]; [8]", "result": 70.61, "unit": "%"}, {"measurement": "Number of Animals with Tumor Volume > 250mm^3", "setting": "[1]; [7]", "result": "5/8"}, {"measurement": "T/C (%) (Day 21)", "setting": "[1]; [7]", "result": 52.76, "unit": "%"}, {"measurement": "Tumor Volume (mm^3)", "setting": "[1]; Day 21 after inoculation, ILB-2109 50 mg/kg gavage twice a day", "result": "494±87", "unit": "mm^3"}, {"measurement": "Tumor Volume (mm^3)", "setting": "[1]; Day 21 after inoculation, ILB-2109 100 mg/kg gavage twice a day", "result": "369±54", "unit": "mm^3"}, {"measurement": "Tumor Weight", "setting": "[1]; [8]", "result": "1.7030 ± 0.1419", "unit": "g"}, {"measurement": "Tumor Weight", "setting": "[1]; [7]", "result": "0.6318 ± 0.1355", "unit": "g"}, {"measurement": "Tumor Volume (mm^3) (Day 12)", "setting": "[1]; [8]", "result": "494±87", "unit": "mm^3"}, {"measurement": "Tumor Volume (mm^3) (Day 12)", "setting": "[1]; [7]", "result": "369±54", "unit": "mm^3"}, {"measurement": "TGI (%) (Day 21)", "setting": "[1]; [8]", "result": 29.39, "unit": "%"}, {"measurement": "TGI (%) (Day 21)", "setting": "[1]; [7]", "result": 47.24, "unit": "%"}, {"measurement": "TGITW (%)", "setting": "[1]; [8]", "result": 31, "unit": "%"}, {"measurement": "TGITW (%)", "setting": "[1]; [7]", "result": 38, "unit": "%"}, {"measurement": "binding rate in plasma", "setting": "Plasma protein binding [2]", "result": "87.3%-95.0%"}, {"measurement": "Ames test result", "setting": "[3]", "result": "negative"}, {"measurement": "IC50", "setting": "CYP2D6; human liver microsomes", "result": "> 100000", "unit": "nM"}, {"measurement": "time-dependent inhibitory effect", "setting": "CYP2D6; non-dilution method, IC50 shift multiple ≥1.5 as judgment standard", "result": "no time-dependent inhibitory effect"}, {"measurement": "binding rate in plasma", "setting": "Plasma protein binding [4]", "result": "87.3%-95.0%"}, {"measurement": "IC50", "setting": "A2aR; antagonism of A2aR activity", "result": 0.43, "unit": "nM"}, {"measurement": "IC50", "setting": "A2aR; tumor physiological equivalent conditions (NECA 5 µM)", "result": 1.08, "unit": "nM"}, {"measurement": "MTD at 14 days", "setting": "[5]", "result": 2000, "unit": "mg/kg"}, {"measurement": "role of CYP2B6, CYP2C8 and CYP2C9 in production of metabolite M4", "setting": "[6]", "result": "may play a secondary role"}, {"measurement": "role of other isoenzymes (CYP1A2, CYP2C19 and CYP2D6) in production of metabolite M4", "setting": "[6]", "result": "little or no effect"}]}]}
